# Test results taken from patent US8343458B2, “Probes for in vivo targeting of active cysteine proteases” (The Board of Trustees of the Leland Stanford Junior …, priority 2008, dated 2013).
# Tested on: thymus tissue undergoing apoptosis
# Assay: Tissue uptake in dexamethasone apoptosis mouse model
# Assay type: in vivo
# Settings: dexamethasone-treated mice, 125I-labeled probe, radioactivity over time
# Procedure: Graphs are for thymus, blood, muscle and liver.
# Distribution studies were done in mice that were treated with dexamethazone (IP injection) to induce apoptosis in the thymus. This animal model is further described, e.g., in Casteels et al. “Sex Difference in Resistance to Dexamethasone-Induced Apoptosis in NOD Mice,” Diabetes, 47:1033-1037, 1998. AB53 was labeled with ^125I at the nitrophenol capping group.
# Referring now to FIG. 6, data for the uptake of the probe in different tissues was obtained. Presented there are four graphs, one for thymus (FIG. 6A), one for blood (FIG. 6B) one for muscle (FIG. 6C) and one for liver (FIG. 6D), showing data from the in vivo uptake studies with ^125I-AB53. Graphs plot radioactivity as percent of initial dose/g of tissue from ^125I measured in different organs over time.
smiles,measurement,value
Cc1cccc(C)c1C(=O)OCC(=O)[C@H](CC(=O)O)NC(=O)C1CCCN1C(=O)[C@H](Cc1ccc(-c2ccccc2)cc1)NC(=O)Cc1ccc([N+](=O)[O-])c(O)c1 (stereo partly shown) [AB53],Probe uptake in thymus,accumulates specifically in the thymus tissue that is undergoing apoptosis
